Test results taken from patent US20230035763A1, “METHODS OF TREATING CANCER USING TUBULIN BINDING AGENTS” (BeyondSpring Pharnaceuticals, Inc., priority 2018, published 2023).

Experiments:
[1] = test system: 43 human cancer cell lines (breast, lung, prostate, ovarian or CNS); experiment: CellTiter-Blue cell viability assay, IC70, panel of human cancer cell lines; format: cell-based; conditions: 24 h treatment, then 48 h without plinabulin
From the text: Plinabulin is a tubulin targeted agent that binds near the colchicine site in β-tubulin and is being tested in a Phase 3 clinical study for the treatment of non-small cell lung cancer. The colchicine site is distinct from the binding site of taxanes (e.g. Paclitaxel and docetaxel), and binding site and other differences between tubulin targeted agents are often associated with differing effects on biological functions, disease outcomes and safety profiles. Additional indications are being considered for plinabulin so a model for selecting especially responsive patients would be of significant value. As a first step towards building this model, the in vitro activity of Plinabulin against 43 human cancer cell lines (breast, lung, prostate, ovarian or CNS), previously characterized for mRNA expression with the Affymetrix HGU133 Plus 2.0 array, was evaluated. Although screening for in vitro anticancer activity is typically performed with constant treatment of the agent for 48-72 hours, cells were treated for only 24 hours with plinabulin and then cultured for another 48 hours without plinabulin.
Typically anticancer activity is judged at the 50% effect level (50% reduction in viable tumor cells), but viable cell concentration are quantified here with a Cell Titer-Blue Assay to find the concentration causing a 70% reduction in the quantity of viable tumor cells (IC70). […]

[2] = test system: A-172, SF-539, SNB-78, U-251, U-87MG; experiment: CellTiter-Blue cell viability assay, CNS cell lines (Active group); format: cell-based, human; design: key: Active: active (IC70<1 µM); Inactive: inactive (IC70>1 µM, and usually >10 µM); conditions: CNS: A-172, SF-539, SNB-78, U-251, U-87MG; IC70 class, 24 h treatment + 48 h compound-free
Procedure: (§1) Working stock solution of the test compounds (Plinabulin, Docetaxel and Paclitaxel) were prepared in DMSO at a concentration of 3.14 (Plinabulin) or 3.3 mM (Docetaxel and Paclitaxel), and small aliquots were stored at −20° C. On each day of an experiment, a frozen aliquot of the working stock solutions was thawed and stored at room temperature prior to and during treatment. All liquid handling steps were done by the Tecan Freedom EVO 200 platform. First, serial half-log dilutions of the DMSO working stock solution were made in DMSO. The DMSO dilutions were then diluted 1:22 into cell culture medium in an intermediate dilution plate. Finally, 10 μl taken from the intermediate dilution plate was transferred to 140 μl/well of the final assay plate. […] Briefly, cells were harvested from exponential phase cultures, counted and plated in 96-well flat-bottom microtiter plates at a cell density of 4,000 to 60,000 cells/well dependent on the cell line's growth rate. […] After the initial application of the compounds for 24 hours, the compound-containing media was exchanged to media without compounds and incubation was continued for a further 48 hours until read-out. […] Following incubation with CellTiter-Blue® reagent for up to four hours, fluorescence (FU) was measured by using the Enspire Multimode Plate Reader (excitation λ=570 nm, emission λ=600 nm). […]

[3] = test system: Calu-, LXFL1121, NCI-H460; experiment: CellTiter-Blue cell viability assay, lung cell lines (Active group); format: cell-based, human; design: key: Active: active (IC70<1 µM); Inactive: inactive (IC70>1 µM, and usually >10 µM); conditions: IC70 class, 24 h treatment + 48 h compound-free
Procedure: as §1

[4] = test system: LXFA289, LXFA526, LXFA629, LXFA983, A549, HOP-62, NCI-H322M, NCI-H226, SK-MES-1, A427, NCI-H1299, H2171, SCLC-21H; experiment: CellTiter-Blue cell viability assay, lung cell lines (Inactive group); format: cell-based, human; design: key: Active: active (IC70<1 µM); Inactive: inactive (IC70>1 µM, and usually >10 µM); conditions: Lung: LXFA289, LXFA526, LXFA629, LXFA983, A549, HOP-62, NCI-H322M, IC70 class, 24 h treatment + 48 h compound-free
Procedure: as §1

[5] = test system: CAL-51, HS578T, JIMT-1, MCF10A, MX1; experiment: CellTiter-Blue cell viability assay, breast cell lines (Active group); format: cell-based, human; design: key: Active: active (IC70<1 µM); Inactive: inactive (IC70>1 µM, and usually >10 µM); conditions: Breast: CAL-51, HS578T, IC70 class, 24 h treatment + 48 h compound-free
Procedure: as §1

[6] = test system: MAXFTN401, BT-474, HCC-1937, MCF7, MDA-MB-231; experiment: CellTiter-Blue cell viability assay, breast cell lines (Inactive group); format: cell-based, human; design: key: Active: active (IC70<1 µM); Inactive: inactive (IC70>1 µM, and usually >10 µM); conditions: Breast: MAXFTN401, BT-474, HCC-1937, MCF7, MDA-MB-231; IC70 class, 24 h treatment + 48 h compound-free
Procedure: as §1

[7] = test system: A2780, EFO-21, EFO-27, OVCAR3; experiment: CellTiter-Blue cell viability assay, ovarian cell lines (Active group); format: cell-based, human; design: key: Active: active (IC70<1 µM); Inactive: inactive (IC70>1 µM, and usually >10 µM); conditions: Ovarian: A2780, EFO-21, EFO-27, OVCAR3; IC70 class, 24 h treatment + 48 h compound-free
Procedure: as §1

OVXF899, OVXF1023 = experiment: CellTiter-Blue cell viability assay, ovarian cell lines (Inactive group); format: cell-based, human; design: key: Active: active (IC70<1 µM); Inactive: inactive (IC70>1 µM, and usually >10 µM); conditions: IC70 class, 24 h treatment + 48 h compound-free
Procedure: as §1

[8] = test system: 22Rv1, DU-145, LNCaP, PC-3M; experiment: CellTiter-Blue cell viability assay, prostate cell lines (Active group); format: cell-based, human; design: key: Active: active (IC70<1 µM); Inactive: inactive (IC70>1 µM, and usually >10 µM); conditions: Prostate: 22Rv1, DU-145, LNCaP, IC70 class, 24 h treatment + 48 h compound-free
Procedure: as §1

PC-3 = experiment: CellTiter-Blue cell viability assay, prostate cell line (Inactive group); format: cell-based, human; design: key: Active: active (IC70<1 µM); Inactive: inactive (IC70>1 µM, and usually >10 µM); conditions: Prostate: PC-3; IC70 class, 24 h treatment + 48 h compound-free
Procedure: as §1

CC(C)(C)c1[nH]cnc1/C=c1\[nH]c(=O)/c(=C/c2ccccc2)[nH]c1=O [Plinabulin]
IC70 (concentration causing a 70% reduction in the quantity of viable tumor cells) ([1]; 21 cell lines of the Active category): < 1.0 µM
IC70 (concentration causing a 70% reduction in the quantity of viable tumor cells) ([1]; 91% of the cell lines of the Inactive category): > 9.5 µM
Plinabulin Activity [2]: Active
Plinabulin Activity [3]: Active
Plinabulin Activity [4]: Inactive
Plinabulin Activity [5]: Active
Plinabulin Activity [6]: Inactive
Plinabulin Activity [7]: Active
Plinabulin Activity (OVXF899, OVXF1023): Inactive
Plinabulin Activity [8]: Active
Plinabulin Activity (PC-3): Inactive
